Source: paper PMC7974150, “Backbone assignment of E. coli NfsB and the effects of addition of the cofactor analogue nicotinic acid” (Biomolecular Nmr Assignments, 2021)

Target: T1, E. coli nitroreductase NfsB (also called NfnB) (Escherichia coli, UniProt P38489)
T1 sequence (P38489 2-217): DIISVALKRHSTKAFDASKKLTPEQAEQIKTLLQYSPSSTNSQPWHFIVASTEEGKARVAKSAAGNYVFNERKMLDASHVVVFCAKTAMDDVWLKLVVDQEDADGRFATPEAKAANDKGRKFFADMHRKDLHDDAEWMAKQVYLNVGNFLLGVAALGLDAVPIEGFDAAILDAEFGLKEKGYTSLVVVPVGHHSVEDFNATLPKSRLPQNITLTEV
Assay: 1D 1H NMR titration, ligand proton shifts fitted to hyperbola
Assay type: binding
Conditions: read-out: Apparent Kd
Excerpt: 1D 1H NMR titration, ligand proton shifts fitted to hyperbola on E. coli nitroreductase NfsB (also called NfnB)

For `O=C(O)c1cccnc1` [nicotinate], the Kd was 1900 ± 300 µM.
